Results from ChEMBL document CHEMBL4425158, “Synthesis, structure-activity relationships and biological evaluation of 4,5,6,7-tetrahydropyrazolopyrazines as metabotropic glutamate receptor 5 negative allosteric modulators” (Bioorg Med Chem Lett, 2016).
Blank lines part the entries; values can stand above or below the compound they belong to. Active and inactive are the calls of the source. The calls are words filed in the database; no cut-off is given here.

Columns and labels:
[1] = Aqueous solubility of the compound at pH 7.4; type: physicochemical
[2] = Aqueous solubility of the compound at pH 1.2; type: physicochemical
Cytochrome P450 3A4 = Cytochrome P450 3A4 (Homo sapiens, UniProt P08684); experiment: Inhibition of CYP3A4 in human liver microsomes using midazolam as substrate after 10 mins in presence of NADPH by LC/MS/MS analysis; type: ADME
Chain of Cytochrome P450 3A4 (P08684 whole entry): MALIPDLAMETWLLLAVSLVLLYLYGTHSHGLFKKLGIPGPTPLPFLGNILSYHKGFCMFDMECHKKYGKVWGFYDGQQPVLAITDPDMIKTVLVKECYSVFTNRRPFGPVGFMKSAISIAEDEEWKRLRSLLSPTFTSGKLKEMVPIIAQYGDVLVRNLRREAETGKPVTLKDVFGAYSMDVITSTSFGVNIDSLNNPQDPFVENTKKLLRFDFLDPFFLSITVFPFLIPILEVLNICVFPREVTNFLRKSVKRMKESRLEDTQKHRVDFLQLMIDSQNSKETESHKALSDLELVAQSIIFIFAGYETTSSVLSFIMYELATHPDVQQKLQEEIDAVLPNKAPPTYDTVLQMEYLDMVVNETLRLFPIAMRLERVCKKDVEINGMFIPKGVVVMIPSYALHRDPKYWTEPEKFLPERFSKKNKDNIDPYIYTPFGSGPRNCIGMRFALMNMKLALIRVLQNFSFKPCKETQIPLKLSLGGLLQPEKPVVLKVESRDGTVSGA

Cytochrome P450 2D6 = Cytochrome P450 2D6 (Homo sapiens, UniProt P10635); experiment: Inhibition of CYP2D6 in human liver microsomes using bufuralol as substrate after 10 mins in presence of NADPH by LC/MS/MS analysis; type: ADME
Chain of Cytochrome P450 2D6 (P10635 whole entry): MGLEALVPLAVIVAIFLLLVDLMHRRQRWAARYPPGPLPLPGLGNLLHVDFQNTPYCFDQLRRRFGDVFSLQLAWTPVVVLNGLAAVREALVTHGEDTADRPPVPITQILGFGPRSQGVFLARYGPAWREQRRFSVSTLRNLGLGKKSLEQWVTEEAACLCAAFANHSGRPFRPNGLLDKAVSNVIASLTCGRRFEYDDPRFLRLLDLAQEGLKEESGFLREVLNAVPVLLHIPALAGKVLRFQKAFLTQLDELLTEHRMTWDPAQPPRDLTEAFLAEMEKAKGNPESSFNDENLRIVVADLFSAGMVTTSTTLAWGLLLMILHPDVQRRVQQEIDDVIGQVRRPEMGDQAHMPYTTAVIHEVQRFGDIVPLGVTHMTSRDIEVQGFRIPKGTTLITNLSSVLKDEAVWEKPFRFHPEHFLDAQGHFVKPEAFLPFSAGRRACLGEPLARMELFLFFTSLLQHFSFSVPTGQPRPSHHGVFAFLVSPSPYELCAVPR

Cytochrome P450 2C19 = Cytochrome P450 2C19 (Homo sapiens, UniProt P33261); experiment: Inhibition of CYP2C19 in human liver microsomes using (S)-mephenytoin as substrate after 10 mins in presence of NADPH by LC/MS/MS analysis; type: ADME
Chain of Cytochrome P450 2C19 (P33261 whole entry): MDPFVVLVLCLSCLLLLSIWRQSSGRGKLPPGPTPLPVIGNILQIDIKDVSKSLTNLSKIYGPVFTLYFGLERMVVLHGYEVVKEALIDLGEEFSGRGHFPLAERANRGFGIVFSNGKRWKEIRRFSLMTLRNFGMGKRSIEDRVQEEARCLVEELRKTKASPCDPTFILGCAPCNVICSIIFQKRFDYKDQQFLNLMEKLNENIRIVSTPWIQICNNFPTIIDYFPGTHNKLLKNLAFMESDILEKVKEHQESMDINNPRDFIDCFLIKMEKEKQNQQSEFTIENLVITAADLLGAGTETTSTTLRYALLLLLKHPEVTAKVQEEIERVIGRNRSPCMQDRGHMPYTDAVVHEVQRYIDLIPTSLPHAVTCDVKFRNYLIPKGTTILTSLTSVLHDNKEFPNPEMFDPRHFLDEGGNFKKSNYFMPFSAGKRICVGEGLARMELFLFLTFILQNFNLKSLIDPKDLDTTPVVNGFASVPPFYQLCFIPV

Cytochrome P450 2C8 = molecular target: T1, Cytochrome P450 2C8 (Homo sapiens, UniProt P10632); experiment: Inhibition of CYP2C8 in human liver microsomes using amodiaquin as substrate after 10 mins in presence of NADPH by LC/MS/MS analysis; type: ADME
T1 sequence (P10632 whole entry): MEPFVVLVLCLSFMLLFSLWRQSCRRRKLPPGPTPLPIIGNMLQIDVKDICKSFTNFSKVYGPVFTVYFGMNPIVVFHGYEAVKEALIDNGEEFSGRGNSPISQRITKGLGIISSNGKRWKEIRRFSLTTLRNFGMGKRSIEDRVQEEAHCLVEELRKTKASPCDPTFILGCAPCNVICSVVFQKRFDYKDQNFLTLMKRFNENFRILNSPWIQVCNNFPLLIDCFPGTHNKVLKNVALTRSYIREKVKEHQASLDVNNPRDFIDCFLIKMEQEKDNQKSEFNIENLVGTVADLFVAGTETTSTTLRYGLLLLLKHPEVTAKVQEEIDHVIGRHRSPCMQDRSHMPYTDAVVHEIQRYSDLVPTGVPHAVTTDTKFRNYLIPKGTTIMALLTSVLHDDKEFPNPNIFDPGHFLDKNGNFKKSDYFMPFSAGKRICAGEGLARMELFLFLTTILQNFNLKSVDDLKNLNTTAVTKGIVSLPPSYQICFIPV

Cytochrome P450 1A2 = molecular target: T2, Cytochrome P450 1A2 (Homo sapiens, UniProt P05177); experiment: Inhibition of CYP1A2 in human liver microsomes using phenacetin as substrate after 10 mins in presence of NADPH by LC/MS/MS analysis; type: ADME
T2 sequence (P05177 whole entry): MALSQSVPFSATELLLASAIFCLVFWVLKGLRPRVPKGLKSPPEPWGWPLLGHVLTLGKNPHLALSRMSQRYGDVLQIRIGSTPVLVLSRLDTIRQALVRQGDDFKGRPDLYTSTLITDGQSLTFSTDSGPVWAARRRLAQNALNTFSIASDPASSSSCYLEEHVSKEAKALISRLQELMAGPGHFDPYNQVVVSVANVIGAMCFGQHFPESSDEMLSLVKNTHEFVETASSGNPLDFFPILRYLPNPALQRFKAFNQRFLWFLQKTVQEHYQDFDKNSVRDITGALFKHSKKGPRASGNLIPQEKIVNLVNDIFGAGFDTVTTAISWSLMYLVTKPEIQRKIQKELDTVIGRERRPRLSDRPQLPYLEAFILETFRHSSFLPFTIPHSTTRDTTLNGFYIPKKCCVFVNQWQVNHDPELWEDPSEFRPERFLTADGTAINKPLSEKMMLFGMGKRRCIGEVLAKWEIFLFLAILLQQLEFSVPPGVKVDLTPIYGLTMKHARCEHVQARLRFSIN

Cytochrome P450 2A6 = molecular target: T3, Cytochrome P450 2A6 (Homo sapiens, UniProt P11509); experiment: Inhibition of CYP2A6 in human liver microsomes using coumarin as substrate after 10 mins in presence of NADPH by LC/MS/MS analysis; type: ADME
T3 sequence (P11509 whole entry): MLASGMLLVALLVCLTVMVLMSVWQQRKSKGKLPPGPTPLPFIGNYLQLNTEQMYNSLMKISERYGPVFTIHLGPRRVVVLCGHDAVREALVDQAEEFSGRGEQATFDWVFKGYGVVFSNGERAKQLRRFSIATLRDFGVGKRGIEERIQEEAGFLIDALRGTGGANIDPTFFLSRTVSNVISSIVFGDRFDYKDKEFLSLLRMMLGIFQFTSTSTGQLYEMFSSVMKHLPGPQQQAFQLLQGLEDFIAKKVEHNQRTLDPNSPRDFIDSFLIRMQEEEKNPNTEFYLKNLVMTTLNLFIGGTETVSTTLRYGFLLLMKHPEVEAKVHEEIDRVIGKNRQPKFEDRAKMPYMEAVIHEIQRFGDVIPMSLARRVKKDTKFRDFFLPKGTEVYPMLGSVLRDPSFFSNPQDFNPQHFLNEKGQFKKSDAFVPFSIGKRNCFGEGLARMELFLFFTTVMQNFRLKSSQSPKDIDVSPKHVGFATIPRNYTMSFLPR

[3] = Metabolic stability in rat liver microsomes assessed as compound remaining at 1 uM after 30 mins in presence of NADPH by LC/MS/MS analysis; type: ADME, Microsome; conditions: read-out: Stability
[4] = Metabolic stability in human liver microsomes assessed as compound remaining at 1 uM after 30 mins in presence of NADPH by LC/MS/MS analysis; type: ADME, Microsome; conditions: read-out: Stability
[5] = molecular target: Metabotropic glutamate receptor 5 (Homo sapiens, UniProt P41594); experiment: Negative allosteric modulation of human recombinant mGluR5 expressed in HEK293 cells assessed as L-glutamate-induced intracellular calcium mobilization incubated for 20 mins before L-glutamate addition; type: functional, cell-based
Chain of Metabotropic glutamate receptor 5 (P41594 whole entry): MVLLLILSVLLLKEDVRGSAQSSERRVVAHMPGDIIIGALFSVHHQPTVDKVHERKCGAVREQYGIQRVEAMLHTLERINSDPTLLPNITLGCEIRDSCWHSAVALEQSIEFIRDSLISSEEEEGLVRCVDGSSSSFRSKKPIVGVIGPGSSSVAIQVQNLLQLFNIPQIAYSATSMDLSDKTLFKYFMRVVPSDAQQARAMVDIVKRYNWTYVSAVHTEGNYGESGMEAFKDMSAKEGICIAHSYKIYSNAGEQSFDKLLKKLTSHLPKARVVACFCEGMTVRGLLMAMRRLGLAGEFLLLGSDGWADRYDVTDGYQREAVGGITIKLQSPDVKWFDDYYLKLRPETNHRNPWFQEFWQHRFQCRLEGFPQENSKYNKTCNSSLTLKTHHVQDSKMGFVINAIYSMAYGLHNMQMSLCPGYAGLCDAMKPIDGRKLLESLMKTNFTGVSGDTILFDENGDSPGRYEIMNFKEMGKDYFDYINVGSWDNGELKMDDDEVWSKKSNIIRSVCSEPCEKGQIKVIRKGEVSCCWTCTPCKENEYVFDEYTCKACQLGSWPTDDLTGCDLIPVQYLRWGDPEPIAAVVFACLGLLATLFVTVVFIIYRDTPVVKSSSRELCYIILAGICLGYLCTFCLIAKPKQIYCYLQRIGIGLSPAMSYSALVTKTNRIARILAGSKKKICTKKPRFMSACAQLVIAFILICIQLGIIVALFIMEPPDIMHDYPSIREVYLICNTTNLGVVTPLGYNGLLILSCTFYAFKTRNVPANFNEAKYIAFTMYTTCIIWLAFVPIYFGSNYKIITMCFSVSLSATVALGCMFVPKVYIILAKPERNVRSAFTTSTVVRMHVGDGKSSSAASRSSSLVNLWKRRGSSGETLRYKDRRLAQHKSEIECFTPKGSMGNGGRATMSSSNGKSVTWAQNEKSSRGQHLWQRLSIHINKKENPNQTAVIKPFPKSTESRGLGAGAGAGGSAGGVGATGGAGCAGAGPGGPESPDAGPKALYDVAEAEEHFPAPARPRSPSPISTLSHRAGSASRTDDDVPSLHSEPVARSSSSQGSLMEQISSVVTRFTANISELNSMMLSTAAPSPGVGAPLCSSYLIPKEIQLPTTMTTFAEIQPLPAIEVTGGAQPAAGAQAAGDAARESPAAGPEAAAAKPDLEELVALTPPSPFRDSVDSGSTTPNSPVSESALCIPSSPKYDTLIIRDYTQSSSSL

Cytochrome P450 2C9 = Cytochrome P450 2C9 (Homo sapiens, UniProt P11712); experiment: Inhibition of CYP2C9 in human liver microsomes using diclofenac as substrate after 10 mins in presence of NADPH by LC/MS/MS analysis; type: ADME
Chain of Cytochrome P450 2C9 (P11712 whole entry): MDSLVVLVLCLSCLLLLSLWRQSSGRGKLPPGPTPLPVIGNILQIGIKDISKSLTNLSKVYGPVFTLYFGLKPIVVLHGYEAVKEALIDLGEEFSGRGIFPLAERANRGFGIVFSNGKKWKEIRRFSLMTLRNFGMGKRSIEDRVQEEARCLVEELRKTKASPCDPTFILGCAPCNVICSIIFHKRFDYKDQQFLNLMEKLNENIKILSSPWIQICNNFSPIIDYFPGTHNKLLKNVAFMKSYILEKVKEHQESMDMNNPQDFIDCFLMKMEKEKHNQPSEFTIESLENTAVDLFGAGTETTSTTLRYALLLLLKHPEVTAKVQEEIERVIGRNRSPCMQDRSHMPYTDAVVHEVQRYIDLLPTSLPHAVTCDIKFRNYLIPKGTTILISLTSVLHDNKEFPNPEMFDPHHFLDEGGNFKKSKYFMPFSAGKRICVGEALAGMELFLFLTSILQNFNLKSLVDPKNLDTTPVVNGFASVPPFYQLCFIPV

Mus musculus = experiment: Antidepressant activity in CD1(ICR) mouse assessed as decrease in immobility time at 60 mg/kg, po after 1 hr by tail suspension test; type: functional, organism-based

SMILES: O=C(c1cccc(F)c1)N1CCn2nc(-c3ccc(F)cn3)cc2C1
IC50 [5]: 257 nM

SMILES: CN(C)CCCN1c2ccccc2CCc2ccccc21
Activity (Mus musculus): Active

SMILES: Cc1cc(F)cc(C(=O)N2CCn3nc(-c4ccc(F)cn4)cc3C2)c1
IC50 [5]: 197 nM

Continued by falling IC50 [5], values first:

IC50 [5]: 477 nM
SMILES: CC(C)(C)c1cc2n(n1)CCN(C(=O)c1ccc3ccccc3c1)C2

solubility [1]: > 100 µg/mL
solubility [2]: > 100 µg/mL
IC50 (Cytochrome P450 3A4): > 50 µM
IC50 (Cytochrome P450 2D6): > 50 µM
IC50 (Cytochrome P450 2C19): > 50 µM
IC50 (Cytochrome P450 2C8): > 50 µM
IC50 (Cytochrome P450 1A2): > 50 µM
IC50 (Cytochrome P450 2A6): > 50 µM
remaining at 0.5 h, 1 µM [3]: 95%
remaining at 0.5 h, 1 µM [4]: 92%
IC50 [5]: 235 nM
IC50 (Cytochrome P450 2C9): > 50 µM
SMILES: O=C(c1ccccc1)N1CCn2nc(-c3ccccn3)cc2C1

IC50 [5]: 150 nM
SMILES: Cc1cccc(C(=O)N2CCn3nc(-c4ccc(F)cn4)cc3C2)c1
